For experiment [1], the target named is His6-ERα298-554 D538G mutant (ERα ligand-binding domain) (Homo sapiens (Human), UniProt P03372, D538G). The experiment is described as follows: Test A: biochemical antagonist activity, LanthaScreen TR-FRET ERα coactivator assay, D538G mutant. As to conditions: protocol with 3 nM estradiol; read-out: Antagonism D538G IC50. The method in brief: (§1)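 TR-FRET 520:495 nm emission ratio read after overnight room-temperature incubation; IC50 derived by 4-parameter logistic fit. Mix: 0.5 nM receptor LBD, 0.5 nM Tb-His6 antibody, 250 nM PGC1a peptide, 3 nM or 10 nM estradiol, pH 7.4 phosphate buffer.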
On the technique in general: TR-FRET usually uses a lanthanide donor and a delayed reading to cut background.

For experiment [2], the target named is His6-ERα298-554 Y537S mutant (ERα ligand-binding domain) (Homo sapiens (Human), UniProt P03372, Y537S). The experiment is described as follows: Test A: biochemical antagonist activity, LanthaScreen TR-FRET ERα coactivator assay, Y537S mutant. The note with it: protocol with 3 nM estradiol; read-out: Antagonism Y537S IC50. In outline: as §1
Experiment [3] addresses ERα in MCF7 cells (Homo sapiens (Human), UniProt P03372). The experiment is described as follows: Test C: estrogen receptor degradation activity, ERα in cell western assay in MCF7 cells. The note with it: for DC50: 4 hours post compound addition, ERα in cell western, read-out: Degradation IC50; for % Degradation at 3 μM: 4 hours, relative to fulvestrant. The class given is cell-based. In outline: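 In-cell western, MCF7, 4 h compound exposure, 3–0.000018 μM final, 9 points, 1:5 steps. Formalin/Triton fix, anti-ER rabbit mAb overnight cold, Alexa 488 secondary plus 2 μM Syto-64. Green intensity = ERα, red = DNA; no-primary wells as background.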

The target of experiment [4] is His6-ERα298-554 WT (ERα ligand-binding domain) (Homo sapiens (Human), UniProt P03372). Description: Test A: biochemical antagonist activity, LanthaScreen TR-FRET ERα coactivator assay, WT. As to conditions: protocol with 3 nM estradiol; read-out: Antagonism WT IC50. In outline: as §1
Sequence of His6-ERα298-554 WT (ERα ligand-binding domain) (P03372 298-554): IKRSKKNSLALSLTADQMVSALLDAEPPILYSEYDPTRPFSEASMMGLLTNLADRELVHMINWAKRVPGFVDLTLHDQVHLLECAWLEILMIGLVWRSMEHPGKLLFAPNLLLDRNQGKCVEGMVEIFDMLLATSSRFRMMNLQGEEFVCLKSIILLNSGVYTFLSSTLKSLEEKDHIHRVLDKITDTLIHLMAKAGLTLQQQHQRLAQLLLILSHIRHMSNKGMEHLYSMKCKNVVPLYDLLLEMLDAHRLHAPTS

Sequence of ERα in MCF7 cells (P03372 whole entry): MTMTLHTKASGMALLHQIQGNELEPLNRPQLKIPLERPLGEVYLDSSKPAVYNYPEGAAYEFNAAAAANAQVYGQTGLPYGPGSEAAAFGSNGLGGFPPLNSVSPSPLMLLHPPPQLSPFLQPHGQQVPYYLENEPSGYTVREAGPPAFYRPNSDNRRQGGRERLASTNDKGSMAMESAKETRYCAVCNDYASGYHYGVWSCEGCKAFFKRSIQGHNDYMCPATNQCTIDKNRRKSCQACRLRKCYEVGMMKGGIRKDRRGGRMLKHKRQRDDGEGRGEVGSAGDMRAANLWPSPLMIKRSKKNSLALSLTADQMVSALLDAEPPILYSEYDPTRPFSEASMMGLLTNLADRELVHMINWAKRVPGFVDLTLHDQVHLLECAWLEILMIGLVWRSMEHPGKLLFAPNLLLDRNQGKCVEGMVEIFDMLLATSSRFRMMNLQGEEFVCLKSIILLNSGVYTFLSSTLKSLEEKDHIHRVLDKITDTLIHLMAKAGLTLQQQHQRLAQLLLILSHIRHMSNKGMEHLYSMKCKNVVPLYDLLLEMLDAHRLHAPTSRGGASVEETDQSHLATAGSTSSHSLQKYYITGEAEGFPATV
Sequence of His6-ERα298-554 Y537S mutant (ERα ligand-binding domain) (P03372 298-554 Y537S): as the sequence (P03372 298-554) above, with Y240S counted along it
Sequence of His6-ERα298-554 D538G mutant (ERα ligand-binding domain) (P03372 298-554 D538G): as the sequence (P03372 298-554) above, with D241G counted along it

What is called IC50 is the concentration needed to halve the response being measured. Consider `Cc1c(Cl)cccc1C1=C(c2ccc(O[C@H]3CCN(CCCF)C3)cc2)c2ccc(O)cc2SCC1` [Example 163, 4-(3-chloro-2-methyl-phenyl)-5-[4-[(3S)-1-(3-fluoropropyl)pyrrolidin-3-yl]oxyphenyl]-2,3-dihydro-1-benzothiepin-8-ol], for which the IC50 in experiment [1] was 24 nM; in experiment [2], 19 nM; in experiment [4], 5 nM. Moreover, the DC50 in experiment [3] came to 0.6 nM. The “% Degradation at 3 μM” value in experiment [3] was determined as 94%.
Turning to `Cc1cc(F)ccc1C1=C(c2ccc(O[C@H]3CCN(CCCF)C3)cc2)c2ccc(O)cc2SCC1` [Example 165, 4-(4-fluoro-2-methyl-phenyl)-5-[4-[(3S)-1-(3-fluoropropyl)pyrrolidin-3-yl]oxyphenyl]-2,3-dihydro-1-benzothiepin-8-ol], the half-maximal inhibitory concentration (IC50) turned out to be 11 nM in experiment [1], 8 nM in experiment [2] and 3 nM in experiment [4]. Also, in experiment [3], the DC50 stood at 0.2 nM. Besides, in experiment [3], the “% Degradation at 3 μM” value was 90%.
In the case of `Oc1ccc2c(c1)SCCC(c1ccc(Cl)cc1F)=C2c1ccc(O[C@H]2CCN(CCCF)C2)cc1` [Example 167, 4-(4-chloro-2-fluoro-phenyl)-5-[4-[(3S)-1-(3-fluoropropyl)pyrrolidin-3-yl]oxyphenyl]-2,3-dihydro-1-benzothiepin-8-ol], the values for the half-inhibitory concentration (IC50) in experiment [1], in experiment [2] and in experiment [4] were 26 nM, 16 nM and 5 nM, respectively. In experiment [3], the DC50 was 0.5 nM. Also, the “% Degradation at 3 μM” value in experiment [3] was found to be 87%.
Take `Oc1ccc2c(c1)SCCC(c1cccc(F)c1Cl)=C2c1ccc(O[C@H]2CCN(CCCF)C2)cc1` [Example 168, 4-(2-chloro-3-fluoro-phenyl)-5-[4-[(3S)-1-(3-fluoropropyl)pyrrolidin-3-yl]oxyphenyl]-2,3-dihydro-1-benzothiepin-8-ol]: the IC50 was 14 nM in experiment [1], 9 nM in experiment [2] and 3 nM in experiment [4]. For the same molecule, the DC50 in experiment [3] is 0.7 nM. Besides, the “% Degradation at 3 μM” value in experiment [3] amounted to 86%.
In the case of `Oc1ccc(C2=C(c3ccc(O[C@H]4CCN(CCCF)C4)cc3)c3ccc(O)cc3SCC2)c(F)c1` [Example 169, 4-(2-fluoro-4-hydroxy-phenyl)-5-[4-[(3S)-1-(3-fluoropropyl)pyrrolidin-3-yl]oxyphenyl]-2,3-dihydro-1-benzothiepin-8-ol], the IC50 in experiment [1] turned out to be 5 nM; in experiment [2], 3 nM; in experiment [4], 2 nM. Besides, in experiment [3], the DC50 was 0.2 nM. Further, the “% Degradation at 3 μM” value in experiment [3] came to 85%.
On the same counts, the results for `Oc1ccc2c(c1)C(c1ccc(O[C@H]3CCN(CCCF)C3)cc1)=C(c1cccc(F)c1Cl)CCS2` [Example 170, 4-(2-chloro-3-fluoro-phenyl)-5-[4-[(3S)-1-(3-fluoropropyl)pyrrolidin-3-yl]oxyphenyl]-2,3-dihydro-1-benzothiepin-7-ol] are 129 nM, 82 nM, 18 nM, 1 nM and 81%.
On to `Cc1ccc(C2=C(c3ccc(O[C@H]4CCN(CCCF)C4)cc3)c3cc(O)ccc3SCC2)c(F)c1` [Example 171, 4-(2-fluoro-4-methyl-phenyl)-5-[4-[(3S)-1-(3-fluoropropyl)pyrrolidin-3-yl]oxyphenyl]-2,3-dihydro-1-benzothiepin-7-ol], for which the IC50 in experiment [1] turned out to be 140 nM; in experiment [2], 87 nM; in experiment [4], 24 nM. Besides, the DC50 in experiment [3] was 0.2 nM. The “% Degradation at 3 μM” value in experiment [3] was determined as 85%.
On the same counts, the results for `Cc1c(Cl)cccc1C1=C(c2ccc(O[C@H]3CCN(CCCF)C3)cc2)c2cc(O)ccc2SCC1` [Example 173, 4-(3-chloro-2-methyl-phenyl)-5-[4-[(3S)-1-(3-fluoropropyl)pyrrolidin-3-yl]oxyphenyl]-2,3-dihydro-1-benzothiepin-7-ol] are 145 nM, 87 nM, 21 nM, 4 nM and 82%.
Consider `Oc1ccc2c(c1)C(c1ccc(O[C@H]3CCN(CCCF)C3)cc1)=C(c1ccc(F)c(Cl)c1)CCS2` [Example 174, 4-(3-chloro-4-fluoro-phenyl)-5-[4-[(3S)-1-(3-fluoropropyl)pyrrolidin-3-yl]oxyphenyl]-2,3-dihydro-1-benzothiepin-7-ol], for which the IC50 came out at 422 nM in experiment [1], 222 nM in experiment [2] and 53 nM in experiment [4]. Also, in experiment [3], the DC50 was 4 nM. Further, in experiment [3], the “% Degradation at 3 μM” value was determined as 81%.
Regarding `Oc1ccc2c(c1)C(c1ccc(O[C@H]3CCN(CCCF)C3)cc1)=C(c1ccc(F)cc1Cl)CCS2` [Example 175, 4-(2-chloro-4-fluoro-phenyl)-5-[4-[(3S)-1-(3-fluoropropyl)pyrrolidin-3-yl]oxyphenyl]-2,3-dihydro-1-benzothiepin-7-ol], the IC50 in experiment [1] was found to be 116 nM; in experiment [2], 65 nM; in experiment [4], 20 nM. Also, the DC50 in experiment [3] turned out to be 0.3 nM. In addition, the “% Degradation at 3 μM” value in experiment [3] came to 83%.
On the same counts, the results for `Oc1ccc(C2=C(c3ccc(O[C@H]4CCN(CCCF)C4)cc3)c3cc(O)ccc3SCC2)cc1` [Example 177, 5-[4-[(3S)-1-(3-fluoropropyl)pyrrolidin-3-yl]oxyphenyl]-4-(4-hydroxyphenyl)-2,3-dihydro-1-benzothiepin-7-ol] are 41 nM, 29 nM, 4 nM, 0.2 nM and 75%.
On the same counts, the results for `Cc1cc(C2=C(c3ccc(O[C@H]4CCN(CCCF)C4)cc3)c3cc(O)ccc3SCC2)ccc1Cl` [Example 179, 4-(4-chloro-3-methyl-phenyl)-5-[4-[(3S)-1-(3-fluoropropyl)pyrrolidin-3-yl]oxyphenyl]-2,3-dihydro-1-benzothiepin-7-ol] are 114 nM, 80 nM, 12 nM, 4 nM and 80%.
Regarding `Cc1cc(F)ccc1C1=C(c2ccc(O[C@H]3CCN(CCCF)C3)cc2)c2cc(O)ccc2SCC1` [Example 180, 4-(4-fluoro-2-methyl-phenyl)-5-[4-[(3S)-1-(3-fluoropropyl)pyrrolidin-3-yl]oxyphenyl]-2,3-dihydro-1-benzothiepin-7-ol], the figures for the IC50 in experiment [1], in experiment [2] and in experiment [4] were 36 nM, 16 nM and 7 nM, respectively. Also, the DC50 in experiment [3] stood at 3 nM. For the same molecule, the “% Degradation at 3 μM” value in experiment [3] is 80%.
On the same counts, the results for `Oc1ccc2c(c1)C(c1ccc(O[C@H]3CCN(CCCF)C3)cc1)=C(c1ccc(Cl)cc1F)CCS2` [Example 181, 4-(4-chloro-2-fluoro-phenyl)-5-[4-[(3S)-1-(3-fluoropropyl)pyrrolidin-3-yl]oxyphenyl]-2,3-dihydro-1-benzothiepin-7-ol] are 135 nM, 54 nM, 25 nM, 3 nM and 83%.
Turning to `O=S1(=O)CCC(c2cccc(O)c2)=C(c2ccc(O[C@H]3CCN(CCCF)C3)cc2)c2ccc(O)cc21` [Example 228, 5-[4-[(3S)-1-(3-fluoropropyl)pyrrolidin-3-yl]oxyphenyl]-4-(3-hydroxyphenyl)-1,1-dioxo-2,3-dihydro-benzothiepin-8-ol], the results for the IC50 in experiment [1], in experiment [2] and in experiment [4] were 73 nM, 38 nM and 6 nM, respectively. Moreover, the DC50 in experiment [3] was 0.2 nM. For the same molecule, the “% Degradation at 3 μM” value in experiment [3] came to 87%.
For the molecule `O=S1(=O)CCC(c2ccc(F)cc2Cl)=C(c2ccc(O[C@H]3CCN(CCCF)C3)cc2)c2ccc(O)cc21` [Example 229, 4-(2-chloro-4-fluoro-phenyl)-5-[4-[(3S)-1-(3-fluoropropyl)pyrrolidin-3-yl]oxyphenyl]-1,1-dioxo-2,3-dihydro-1λ^6-benzothiepin-8-ol], the IC50 in experiment [1] turned out to be 85 nM; in experiment [2], 34 nM; in experiment [4], 12 nM. For the same molecule, the DC50 in experiment [3] amounted to 0.2 nM. Moreover, in experiment [3], the “% Degradation at 3 μM” value amounted to 89%.
On the same counts, the results for `Cc1ccc(C2=C(c3ccc(O[C@H]4CCN(CCCF)C4)cc3)c3ccc(O)cc3S(=O)(=O)CC2)c(F)c1` [Example 230, 4-(2-fluoro-4-methyl-phenyl)-5-[4-[(3S)-1-(3-fluoropropyl)pyrrolidin-3-yl]oxyphenyl]-1,1-dioxo-2,3-dihydro-1λ^6-benzothiepin-8-ol] are 99 nM, 41 nM, 14 nM, 0.8 nM and 93%.
On to `O=S1(=O)CCC(c2cccc(F)c2Cl)=C(c2ccc(O[C@H]3CCN(CCCF)C3)cc2)c2ccc(O)cc21` [Example 232, 4-(2-chloro-3-fluoro-phenyl)-5-[4-[(3S)-1-(3-fluoropropyl)pyrrolidin-3-yl]oxyphenyl]-1,1-dioxo-2,3-dihydro-1λ^6-benzothiepin-8-ol], for which the IC50 is 99 nM in experiment [1], 78 nM in experiment [2] and 16 nM in experiment [4]. For the same molecule, the DC50 in experiment [3] was determined as 0.2 nM. For the same molecule, the “% Degradation at 3 μM” value in experiment [3] is listed as 95%.

The values above are taken from US11149031B2, “Substituted N-(3-fluoropropyl)-pyrrolidine compounds, processes for their preparation and therapeutic uses thereof” (SANOFI, priority 2016, dated 2021).
